Assay results taken from patent US6635030B1 (B.H.B. LLC, priority 1999, dated 2003).

Experiment: Empiric porcine aortic contrast enhancement, dynamic CT after i.v. contrast injection
Format: in vivo, pig
Protocol: In order to test the mathematical solutions, a porcine study was conducted. All animal care and procedures performed were approved by the Institutional Animal Study Committee. […] Each session was separated by at least two days. Two pigs had all their sessions within a week, while the other two pigs had their first two and last sessions delays 4-5 weeks, which results in an increase in their weight to 35-40 kg in their last session. In each session, the pig was anesthetized, intubated, and underwent scanning for three or four sets of images obtained in random order. During scanning, each pig was ventilated with oxygen and low tidal volume to minimize breathing motion artifact. […] Each set of scans were 45-60 minutes apart to minimize the effect of prior contrast administration. All CT scanning was performed with a Somatom Plus-S scanner (Siemens Medical Systems, […].) using a one-second scanning time and a one-second interscan delay. Three types of injection schemes were tested: uniphasic, biphasic, and multiphasic. Biphasic injections were performed by a prior art power injector which was used in routine clinical CT scanning while uniphasic and multiphasic injections were conducted with a power injector which was invented for achieving the required protocols. This power injector was capable of delivering contrast medium in various uniphasic or multiphasic injection algorithms, as is explained in greater detail below. The multiphasic injection rate is determined by an initial injection rate and an exponential decay coefficient, as shown in FIG. 3. […] Most injections were performed with the initial injection rate of 2 mL/s. […] Three differential exponential decay coefficients (0.007, 0.017, 0.026) were tested. […] These were the three smallest discrete increments allowed in the prototype of the inventive power injector. Decay coefficient higher than 0.03 was not used because it was evident that a further increase in the coefficient would deviate further away from uniform vascular enhancements. A uniphasic injection was determined as being equivalent to a zero exponential decay coefficient where the injection rate remains constant at an initial injection rate throughout the injection duration. […] Approximately half of the total contrast volume was injected in each phase of the biphasic injections. […] Attenuation values of the aorta were measured from post-contrast scans (at the same level as the pre-contrast scans) using a circular region of interest (ROI) at the center of the aorta. Contrast enhancement was calculated as the absolute different in attenuation value between the pre- and post-contrast scans. […] Means and standard deviations were also computed. The results are now explained.

[1] = 25 kg pig, 50 mL of 282 mgI/mL contrast medium, uniphasic 2 mL/sec
[2] = four pigs, 50 mL, 2 mL/s initial injection rate, decay constant 0.017
[3] = four pigs, 70 mL, 2 mL/s initial injection rate, decay constant 0.017

**Q.** Which results are given for CNC(=O)c1c(I)c(NC(C)=O)c(I)c(C(=O)O)c1I.CNC[C@H](O)[C@@H](O)[C@H](O)[C@H](O)CO [contrast medium, iothalmate meglumine]?
**A.** magnitude of the peak aortic enhancement (empiric) [1]: 250 HU; time to the peak aortic enhancement (empiric) [1]: 26 s; increase of duration of enhancement within 90% of the peak (90%DCE), multiphasic vs uniphasic injection, mean [2]: 81%; reduction of peak aortic enhancement (PA), multiphasic vs uniphasic injection, mean [2]: 19%; decrease of peak aortic enhancement (PA), multiphasic vs uniphasic injection [3]: 18%; increase of duration of enhancement within 90% of the peak (90%DCE), multiphasic vs uniphasic injection [3]: 94%
